Patent publication US9212182B2, “Bicyclic sulfonamide compounds as sodium channel inhibitors” (AMGEN INC., priority 2013, dated 2015)

Target: Nav 1.7 (Homo sapiens (Human), UniProt Q15858)
Experiment: in-vitro Nav 1.7 PX (IC50)
Assay type: cell-based
Settings: not given

Chain of Nav 1.7 (Q15858 whole entry): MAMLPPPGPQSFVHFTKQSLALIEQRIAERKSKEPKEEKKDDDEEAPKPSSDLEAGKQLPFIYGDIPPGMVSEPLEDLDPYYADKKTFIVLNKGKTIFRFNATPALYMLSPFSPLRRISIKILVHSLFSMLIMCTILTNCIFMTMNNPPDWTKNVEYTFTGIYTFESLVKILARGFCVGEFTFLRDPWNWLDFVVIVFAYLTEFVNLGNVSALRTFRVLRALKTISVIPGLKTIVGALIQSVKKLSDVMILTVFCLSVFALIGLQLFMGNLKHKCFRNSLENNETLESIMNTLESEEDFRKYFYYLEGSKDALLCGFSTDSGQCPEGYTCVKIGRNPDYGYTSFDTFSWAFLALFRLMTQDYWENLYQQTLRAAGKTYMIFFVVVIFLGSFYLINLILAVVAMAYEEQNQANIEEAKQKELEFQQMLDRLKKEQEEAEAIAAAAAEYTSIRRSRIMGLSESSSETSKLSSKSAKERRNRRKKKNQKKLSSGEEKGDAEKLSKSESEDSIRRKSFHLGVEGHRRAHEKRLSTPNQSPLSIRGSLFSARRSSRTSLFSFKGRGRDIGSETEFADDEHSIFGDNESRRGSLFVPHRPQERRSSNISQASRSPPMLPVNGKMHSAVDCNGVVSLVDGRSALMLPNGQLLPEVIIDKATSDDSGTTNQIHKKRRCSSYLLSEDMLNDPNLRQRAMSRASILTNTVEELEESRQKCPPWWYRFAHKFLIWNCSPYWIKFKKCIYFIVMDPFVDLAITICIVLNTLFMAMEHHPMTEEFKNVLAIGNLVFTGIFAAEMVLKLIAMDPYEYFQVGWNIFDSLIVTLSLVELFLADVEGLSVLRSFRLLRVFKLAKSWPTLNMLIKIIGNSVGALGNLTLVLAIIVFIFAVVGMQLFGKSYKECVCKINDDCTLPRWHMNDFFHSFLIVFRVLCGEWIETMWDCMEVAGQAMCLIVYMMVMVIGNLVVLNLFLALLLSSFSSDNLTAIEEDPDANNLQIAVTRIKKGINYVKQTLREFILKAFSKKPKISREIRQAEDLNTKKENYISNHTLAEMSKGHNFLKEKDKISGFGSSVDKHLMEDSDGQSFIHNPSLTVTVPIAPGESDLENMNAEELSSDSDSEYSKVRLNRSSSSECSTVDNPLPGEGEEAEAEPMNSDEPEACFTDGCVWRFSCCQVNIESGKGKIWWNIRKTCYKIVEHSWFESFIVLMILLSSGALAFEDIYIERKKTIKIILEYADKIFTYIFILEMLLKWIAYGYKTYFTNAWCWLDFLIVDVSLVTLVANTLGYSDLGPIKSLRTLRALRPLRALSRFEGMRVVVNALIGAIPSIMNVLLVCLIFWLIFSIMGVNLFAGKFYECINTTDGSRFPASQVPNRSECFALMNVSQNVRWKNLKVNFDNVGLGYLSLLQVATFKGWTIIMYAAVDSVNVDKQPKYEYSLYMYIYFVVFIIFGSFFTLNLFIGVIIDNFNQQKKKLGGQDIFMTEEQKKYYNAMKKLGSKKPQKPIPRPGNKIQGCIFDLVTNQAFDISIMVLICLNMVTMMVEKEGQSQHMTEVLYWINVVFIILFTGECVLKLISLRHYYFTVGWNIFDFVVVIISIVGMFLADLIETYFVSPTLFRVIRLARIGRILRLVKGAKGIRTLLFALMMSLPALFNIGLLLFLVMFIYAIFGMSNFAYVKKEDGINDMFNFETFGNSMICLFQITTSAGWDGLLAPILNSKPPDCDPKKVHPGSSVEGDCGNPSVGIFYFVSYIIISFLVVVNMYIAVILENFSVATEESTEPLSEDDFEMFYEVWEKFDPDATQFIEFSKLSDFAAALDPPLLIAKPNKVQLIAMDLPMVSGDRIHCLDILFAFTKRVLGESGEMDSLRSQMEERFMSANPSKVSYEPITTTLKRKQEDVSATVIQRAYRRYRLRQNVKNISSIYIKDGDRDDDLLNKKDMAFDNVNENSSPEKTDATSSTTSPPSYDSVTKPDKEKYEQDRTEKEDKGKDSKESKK

IC50 [nM] | SMILES
3100 | COc1nc(Oc2ccc(F)cc2)c(Cl)cc1-n1c(=O)ccc2cc(S(=O)(=O)Nc3ccon3)ccc21 [Example 1220, 1-(5-chloro-6-(4-fluorophenoxy)-2-methoxy-3-pyridinyl)-N-3-isoxazolyl-2-oxo-1,2-dihydro-6-quinolinesulfonamide]
78 | COc1cc(-c2cccc(C(F)(F)F)c2)ccc1-n1c(=O)cnc2cc(S(=O)(=O)Nc3ncccn3)ccc21 [Example 1200, 1-(3-methoxy-3′-(trifluoromethyl)-4-biphenylyl)-2-oxo-N-2-pyrimidinyl-1,2-dihydro-6-quinoxalinesulfonamide]
3360 | COc1cc(Br)c(F)cc1-n1c(=O)ccc2cc(S(=O)(=O)Nc3cc(OCC4CCC4)ncn3)ccc21 (atropisomer, axis not shown; (P)) [Example 1184, (P)-1-(4-bromo-5-fluoro-2-methoxyphenyl)-N-(6-(cyclobutylmethoxy)-4-pyrimidinyl)-2-oxo-1,2-dihydro-6-quinolinesulfonamide]

Same assay, conditions: in-vitro Nav 1.7 PX data

IC50 [nM] | SMILES
27 | COc1cc(-c2ccc(F)c(C)c2)c(F)cc1-n1c(=O)ccc2cc(S(=O)(=O)Nc3ccnc(C)n3)ccc21 [Example 944, 1-(2,4′-difluoro-5-methoxy-3′-methyl-4-biphenylyl)-N-(2-methyl-4-pyrimidinyl)-2-oxo-1,2-dihydro-6-quinolinesulfonamide]
25 | COc1cc(-c2cccc(OC(C)C)c2)c(F)cc1-n1c(=O)ccc2cc(S(=O)(=O)Nc3ccon3)ccc21 [Example 823, 1-(2-fluoro-5-methoxy-3′-(1-methylethoxy)-4-biphenylyl)-N-3-isoxazolyl-2-oxo-1,2-dihydro-6-quinolinesulfonamide]
80 | COc1cc(C#CC(C)(C)C)c(F)cc1-n1c(=O)ccc2cc(S(=O)(=O)Nc3ccon3)ccc21 [Example 1122, 1-(4-(3,3-dimethyl-1-butyn-1-yl)-5-fluoro-2-methoxyphenyl)-N-3-isoxazolyl-2-oxo-1,2-dihydro-6-quinolinesulfonamide]
49 | COc1cc(-c2ccc(C(F)(F)F)cc2)c(F)cc1-n1c(=O)ccc2cc(S(=O)(=O)Nc3cc(C)ncn3)ccc21 [Example 798, 1-(2-fluoro-5-methoxy-4′-(trifluoromethyl)-4-biphenylyl)-N-(6-methyl-4-pyrimidinyl)-2-oxo-1,2-dihydro-6-quinolinesulfonamide]
10800 | COc1cc(Cl)c(-c2cc(F)cc(Cl)c2)cc1-n1c(=O)ccc2cc(S(=O)(=O)Nc3ccon3)ccc21 (atropisomer, axis not shown; (M)) [Example 615, (M)-1-(3′,6-dichloro-5′-fluoro-4-methoxy-3-biphenylyl)-N-3-isoxazolyl-2-oxo-1,2-dihydro-6-quinolinesulfonamide]
37 | COc1cc(-c2ccc(Cl)cc2)ccc1-n1c(=O)ccc2cc(S(=O)(=O)Nc3ncco3)ccc21 [Example 766, 1-(4′-chloro-3-methoxy-4-biphenylyl)-N-1,3-oxazol-2-yl-2-oxo-1,2-dihydro-6-quinolinesulfonamide]
31 | COc1cc(-c2ccc(C(F)(F)F)cc2)c(F)cc1-n1c(=O)ccc2cc(S(=O)(=O)Nc3cccnn3)ccc21 [Example 795, 1-(2-fluoro-5-methoxy-4′-(trifluoromethyl)-4-biphenylyl)-2-oxo-N-3-pyridazinyl-1,2-dihydro-6-quinolinesulfonamide]

SMILES | IC50 [nM]
COc1cc(-c2ccc(Cl)cc2)c(F)cc1-n1c(=O)ccc2cc(S(=O)(=O)Nc3ccon3)ccc21 (atropisomer, axis not shown; (P)) [Example 633, (P)-1-(4′-chloro-2-fluoro-5-methoxy-4-biphenylyl)-N-3-isoxazolyl-2-oxo-1,2-dihydro-6-quinolinesulfonamide] | 7

Same assay, conditions: in-vitro PatchXpress (PX)

IC50 [nM] | SMILES
> 10000 | COc1cc(-c2cc(F)c(F)cc2F)c(F)cc1-n1c(=O)ccc2cc(S(=O)(=O)Nc3ccon3)ccc21 (atropisomer, axis not shown; (P)) [Example 516, (P)—N-3-isoxazolyl-2-oxo-1-(2,2′,4′,5′-tetrafluoro-5-methoxy-4-biphenylyl)-1,2-dihydro-6-quinolinesulfonamide]
